According to patent US20130317092A1 (priority 2007, published 2013):
Numbered stars: 1 amine (or outer) side, 2 acyl side, 3 side chain; on linkers, the order of the positions; unused ones are H or OH. Bridge positions count the residues as written; N and C are the ends. Square brackets hold non-standard residues; d marks the D form. Peptide text beside a SMILES is read from it. I, II: the chains in the order shown. Actinocin(9to1) = Cc1c2oc3c(C)ccc(C(=O)[*:1])c3nc-2c(C(=O)[*:2])c(N)c1=O; NMeV = CN[C@H](C(=O)O)C(C)C; Sar = CNCC(=O)O

Experiments:
activated caspase-3 = assay: Activated caspase-3 immunostaining in Meg-01 cells; assay type: cell-based, human; conditions: for caspase-3 activation induced by Thapsi or ARP, with co-treatment: Thapsi or ARP plus inhibitor; for caspase-3 activation induced by Thapsi, with co-treatment: Thapsi plus inhibitor
AChmiRNA (miRNA-181a) = AChmiRNA (miRNA-181a) level by real-time RT-PCR in Meg-01 cells; assay type: cell-based, human; conditions: for AChmiRNA levels on co-treatment with Thapsi: Meg-01 cells co-treated with Thapsi and inhibitor; for ARP-induced decrease of AChmiRNA on co-treatment: Meg-01 cells, ARP plus inhibitor
AChE-R = AChE-R protein immunocytochemistry in Meg-01 cells; assay type: cell-based, human; conditions: 24 hours
activated caspase-9 = assay: Activated caspase-9 immunostaining in Meg-01 cells; assay type: cell-based, human
Meg-01 cells [1] = assay: Scanning electron microscopy of Meg-01 cell surface (megakaryocytic maturation); assay type: cell-based, human; conditions: 24 hour treatment
AChE-R mRNA = AChE-R mRNA level (RT-PCR, fluorescent in situ hybridization) in Meg-01 cells; assay type: cell-based, human
Meg-01 cells [2] = assay: Nuclear area measurement of Meg-01 cells; assay type: cell-based, human; conditions: 24 hours
AChE-S = AChE-S protein immunocytochemistry in Meg-01 cells; assay type: cell-based, human; conditions: 24 hours
Meg-01 cells [3] = assay: Ploidy / DNA content of Meg-01 cells by FACS and propidium iodide; assay type: cell-based, human; conditions: 72 hours
Meg-01 cells [4] = assay: DNA fragmentation by TUNEL assay in Meg-01 cells; assay type: cell-based, human
Bcl-2 = Bcl-2 immunostaining in Meg-01 cells; assay type: cell-based, human
PKCβII = PKCβII immunocytochemistry in Meg-01 cells; assay type: cell-based, human; conditions: 24 hours
[5] = system: 3′UTR fragment of human AChE cDNA; assay: Dot blot hybridization of LNA-modified oligos with PCR-amplified AChE 3′UTR; assay type: binding; conditions: 5′-32P-labeled LNA-modified oligos
Protocol: The common AChE 3′-UTR sequence was obtained from AY750146 (all mRNA sequence beginning from stop codon). 3′-UTR of AChE was amplified by RT-PCR using Promega reagents and total RNA isolated with QIAGEN RNeasy kit from post-mortem human brain, with primers including XhoI, NotI restriction sites in 5′ and 3′ primer, respectively. Primer sequences used were: (5′): […], (3′) (SEQ ID NO: 111): […] (SEQ ID NO: 112). Annealing temperature of 57° C. was used. PCR product was purified with QIAGEN QiaQuick kit, size of fragment verified in agarose gel, spotted on a dry HyBond nylon membrane in 2 ul drops, cross-linked to the membrane using 1200 mJ UV burst, and baked for 1 hr at 80° C. Membrane was blocked for at least 2 hours in solution containing 50% deionized formamide, 5×SSPE, 0.5% SDS, 5×Denhardt's Solution at 50° C.; and hybridized o/night in same conditions with 5′-32P-labeled probes mimicking miRs wholly or with mismatches as indicated, washed 4 times at 37° C. in 3×SSPE, 5% SDS, 10×Denhardt's solution; once at 42° C. in 1×SSPE, 1% SDS; exposed over up to 3 days to a PhosphorImager (Molecular Dynamics/GE Healthcare) plate, and signal quantified using FujiFilm's ImageGauge 4 software.

RAW 264.7 cells = assay: NO production of LPS-challenged RAW 264.7 cells transfected with miR mimics; assay type: cell-based, murine
Protocol: Murine RAW 264.7 macrophage-derived cell line known to express TLR4 and respond to endotoxin by production of pro-inflammatory mediators such as Nitric Oxide (NO), prostaglandins, and cytokines as ILE IL6, and TNFalpha were used (described in the preceding examples e.g., Examples 7 and 8). Cells were grown in 5 ml flasks in a humidified atmosphere in Dulbecco's modified Eagle's medium (DMEM, Biological Industries) supplemented with 10% fetal calf serum (FCS) and 2 mM L-glutamine at 37° C., 5% CO2.
Griess method was used to determine NO2 levels in medium in which macrophages had been cultured. 100 μl of each sample+100 μl of Griess reagent (1% sulfanilamide/0.1% naphthylethylenediamine dihydrochloride/2.5% H3PO4)—were incubated 10-20 min at room temperature. Read absorbance at 546 nm in micro-ELISA reader.
miR 132 and 182* (SEQ ID NOs: 54 and 93, respectively) were LNA modified (products are designated with SEQ ID NOs. 107 and 108, respectively). A locked nucleic acid (LNA), often referred to as inaccessible RNA, is a modified RNA. Ribose moiety of LNA nucleotide is modified with an extra bridge connecting 2′ and 4′ carbons. The bridge “locks” the ribose in 3′-endo structural conformation, which is often found in A-form of DNA or RNA. LNA nucleotides can be mixed with DNA or RNA bases in the oligonucleotide whenever desired. The locked ribose conformation enhances base stacking and backbone pre-organization.
electroporation and lipofection were used for cell transfection.
Oligos containing LNA modifications on every third base (Table 4) were obtained from Sigma-Proligo. Transfection was performed with Lipofectamine 2000 (Invitrogen, Carlsbad, Calif.) using 3 μg of oligo per sample. Briefly, cells were brought to 80%-90% confluence at the time of transfection. For each transfection sample, 3 μg oligo were diluted in 1 ml of RPMI-1640 while the lipofectamine reagent was diluted in 1 ml of RPMI-1640. After 5 minutes the diluted oligo and lipofectamine were combined and incubated for 20 minutes. This was added to the cells within the 75 ml flask, containing 6 ml RPMI complete+GM-CSF ([…] final oligo concentration). […]
To determine cell viability 40 μl of thiazolyl blue tetrazolium bromide (MTT) reagent (Sigma) at 5 mg/ml was added per sample well, incubated for 30 minutes at 37° C. Medium was removed, 400 μl of DMSO was added per well and absorbance read at 550 nm Griess method was used to determine NO2 levels in conditioned medium from macrophage cultures. […] Absorbance was read at 546 nm in a micro-ELISA reader. TNF-α, IL-6 levels were measured by Enzyme-Linked Immunosorbent Assay (ELISA) according to manufacturer's procedures (R&D Systems kits, MTA00, M6000B, respectively). All absorbance results were normalized using standard curves. […]

[6] = system: Murine macrophage RAW 264.7 cells; assay: Nitric oxide production (nitrite, Griess) by RAW 264.7 macrophages; assay type: cell-based; conditions: LPS 1 μg/ml, IFN-γ 4 ng/ml, oligos 100 nM
Protocol: Murine macrophage RAW 264.7 cells were cultured in 48 well plates (50×10^3 cells per well). The production of NO by these macrophages was examined following various stimuli (6 repetitions for each treatment) at three time intervals (6, 12 and 24 hours) as depicted in FIGS. 27a, 27b and 27c.
Mouse RAW cells, human U937 cells and primary human macrophages were treated for 24 h with 1 μM CpG oligonucleotides or 1 μg/ml bacterial lipopolysaccharide added to standard growth medium
Interleukin 6 expression was assayed by QRT-PCR, nitric oxide was measured by Griess assay and prostaglandin E2 levels were measured by R&D ELISA kit according to manufacturer's instructions.

## Bisindolylmaleimide [BIM]
Activated caspase-3; 24 hours
  caspase-3 activation induced by Thapsi or ARP, with co-treatment: inhibited the activation of caspase-3 induced by both treatments
AChmiRNA (miRNA-181a)
  AChmiRNA levels on co-treatment with Thapsi: restored the control levels of AChmiRNA
  ARP-induced decrease of AChmiRNA on co-treatment: prevented the ARP effect
AChE-R
  increase in AChE-R immunoreactivity elicited by Thapsi or ARP, with co-treatment: blocked the characteristic increase in AChE-R immunoreactivity

## O=S(=O)(NCCNCC=Cc1ccc(Br)cc1)c1cccc2cnccc12 [H89, N-(2-((p-Bromocinnamyl)amino)ethyl)-5-isoquinolinesulfonamide]
Activated caspase-3; 24 hours
  caspase-3 activation induced by Thapsi or ARP, with co-treatment: prevented the differentiation-associated caspase-3 activation induced by both Thapsi and ARP
AChmiRNA (miRNA-181a)
  AChmiRNA levels on co-treatment with Thapsi: restored the control levels of AChmiRNA
  ARP-induced decrease of AChmiRNA on co-treatment: prevented the ARP effect
AChE-R
  increase in AChE-R immunoreactivity elicited by Thapsi or ARP, with co-treatment: blocked the characteristic increase in AChE-R immunoreactivity

## ARP: human AChE-R C-terminal peptide GMQGPAGSGWEEGSGSPPGVTPLFSP (ARP peptide (synthetic))
Activated caspase-9
  incidence of activated caspase-9 positive cells: increased the incidence of positive cells for activated caspase-9 immunostaining
Activated caspase-3; 24 hours, agent alone
  incidence of activated caspase-3 positive cells: increased the fraction of cells immunopositive for activated caspase-3
Meg-01 cells [1]
  cell surface morphology (scanning electron microscopy): induced cell surface modifications
AChE-R mRNA; 24 hours
  AChE-R mRNA level (RT-PCR): increased the level of AChE-R mRNA
AChE-R mRNA; agent alone
  AChE-R mRNA level by FISH (population distribution): rightward shift in the population distribution of labeling intensity
AChmiRNA (miRNA-181a); Meg-01 cells treated for 24 hours, agent alone
  level of AChmiRNA: decreased the level of AChmiRNA
Meg-01 cells [2]
  nuclear area / nuclei size: increased
AChE-S
  expression of the AChE-S variant (immunohistochemistry): decrease of expression of the AChE-S variant
Meg-01 cells [3]
  ploidy (DNA content): increased ploidy
Meg-01 cells [4]
  DNA fragmentation / cell death (TUNEL): no significant changes
AChE-R
  AChE-R protein level (immunohistochemistry): increase also in the protein level
Bcl-2
  immunoreactivity of Bcl-2: decrease in the immunoreactivity of Bcl-2
PKCβII
  staining intensity for PKCβ: increased staining intensity for PKCβ

## CO[C@H](C/C=C\C=C\CC/C=C/C[C@H](C)/C=C/C(=C\C(=O)O)CC(=O)O)/C(C)=C\C=C(/C)C(=O)O [Bongkrekic acid]
Activated caspase-3; 24 hours
  caspase-3 activation induced by Thapsi or ARP, with co-treatment: inhibited the caspase-3 activation induced by ER-calcium releasing or ARP

## miR-132 mut2A>G: miR-132 mimic with single mismatch in second nucleotide: TG+ACA+GTC+TAC+AGC+CAT+GGT+CG (TGACAGTCTACAGCCATGGTCG; LNA at 3, 6, 9, 12, 15, 18, 21, other sugars and backbone not given here)
[5]
  binding to PCR-amplified AChE 3′UTR (dot blot signal): detectable signal only when bound to 50 ng of PCR product

## CCCCCCCCCCCCCC(=O)O[C@@H]1[C@@H](C)[C@@]2(O)[C@@H](C=C(CO)C[C@]3(O)C(=O)C(C)=C[C@@H]23)[C@@H]2C(C)(C)[C@]12OC(C)=O [PMA, phorbol 12-myristate 13-acetate]
PKCβII
  staining intensity for PKCβ: increased staining intensity for PKCβ

## Cc1c2oc3c(C)ccc(C(=O)N[C@@H]4C(=O)N[C@H](C(C)C)C(=O)N5CCC[C@H]5C(=O)N(C)CC(=O)N(C)[C@@H](C(C)C)C(=O)O[C@@H]4C)c3nc-2c(C(=O)N[C@@H]2C(=O)N[C@H](C(C)C)C(=O)N3CCC[C@H]3C(=O)N(C)CC(=O)N(C)[C@@H](C(C)C)C(=O)O[C@@H]2C)c(N)c1=O [actinomycin D, Actinomycin D] (I: T[dV]P[Sar][NMeV] / II: T[dV]P[Sar][NMeV]; ester I:1-I:C, II:1-II:C; linker I:N-II:N via Actinocin(9to1))
Activated caspase-3
  caspase-3 activation induced by Thapsi, with co-treatment: inhibited

## CN(C)C(=O)Oc1ccc[n+](C)c1 [Pyridostigmine]
Activated caspase-3
  caspase-3 activation induced by Thapsi, with co-treatment: inhibited the activation of caspase-3 induced by Thapsi

## miR-182* mimic: LNA-modified oligo mimicking miR-182*: TG+GTT+CTA+GAC+TTG+CCA+ACT+A (TGGTTCTAGACTTGCCAACTA; LNA at 3, 6, 9, 12, 15, 18, 21, other sugars and backbone not given here)
RAW 264.7 cells; LPS-exposed RAW-264.7 cells transfected with oligo (Example 13)
  activation of macrophage cell lines by LPS (NO production) after transfection: somewhat less prominently
RAW 264.7 cells; RAW 264.7 cells transfected or electroporated, then endotoxin challenge (Example 11)
  endotoxin response (NO production) after transfection: significantly attenuate endotoxin response
[5]
  binding to PCR-amplified AChE 3′UTR (dot blot signal): significant binding to 20 ng doses of PCR product

## miR-182* mut2G>A: miR-182* mimic with single mismatch in second nucleotide: TA+GTT+CTA+GAC+TTG+CCA+ACT+A (TAGTTCTAGACTTGCCAACTA; LNA at 3, 6, 9, 12, 15, 18, 21, other sugars and backbone not given here)
[5]
  binding to PCR-amplified AChE 3′UTR (dot blot signal): disappeared altogether

## IFN-γ: interferon (IFN)-γ
[6]; RAW 264.7, 6 hours
  Nitrite concentration reflecting NO production: 8 µM
[6]; RAW 264.7, 12 hours
  Nitrite concentration reflecting NO production: 26 µM
[6]; RAW 264.7, 24 hours
  Nitrite concentration reflecting NO production: 54 µM

## SEQ ID NO:20: similar oligo with an inverse sequence to AChmiON, used as negative control (CCACGUCCUCUUGCACCGUC; similar oligo to AChmiON, chemistry not explicitly stated, further chemistry not given here)
AChE-R mRNA; negative control oligo, data not shown
  effect on the AChE splice shift: no significant effect on the AChE splice shift
